Counter-ions that a name gives are not always drawn. Bounds are passed on as bounds.

The test system of assay [1] is cultured human mast cells (CHMC). The assay can be described thus: CHMC low cell density IgE activation: tryptase and LTC4 assays. The format is cell-based. The settings on record: read-out: CHMC anti-IgE Tryptase. In outline:
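Cultured human mast cells at low density (1000-1500 per well) rested 1 h at 37° C, then stimulated with anti-IgE for 30 min at 37° C. Supernatant tryptase measured with fluorogenic substrate (30 min, room temperature); LTC4 quantified by ELISA on diluted supernatant.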

For assay [2] the test system is unchanged. Description: CHMC low cell density ionomycin activation: tryptase assay. The format is cell-based. The settings on record: read-out: CHMC Ionomycin Tryptase.
The mark [3] stands for this setting: Homo sapiens, Mast cell, Low Density CHMC, anti-IgE activation, tryptase readout.
Setting [4] is: Homo sapiens, Mast cell, Low Density CHMC, ionomycin activation, tryptase readout.
Setting [5] is: Low Density CHMC, anti-IgE activation, tryptase readout.
The mark [6] stands for this setting: Low Density CHMC, ionomycin activation, tryptase readout.

For `CC(C)c1ccc(O)cc1Nc1ncc(F)c(Nc2cc(O)ccc2C(C)C)n1` [Compound R935077, N2,N4-Bis(5-hydroxy-2-isopropylphenyl)-5-fluoro-2,4-pyrimidinediamine], the IC50 in assay [1] (setting [3]) and in assay [2] (setting [4]) was more than 10 µM throughout.

With `CC(C)Oc1ccc(Nc2ncc(F)c(Nc3ccc(OC(C)C)cc3)n2)cc1` [Compound R926701, N2,N4-Bis(4-isopropoxyphenyl)-5-fluoro-2,4-pyrimidinediamine], the IC50 was 2.2 µM in assay [1] (setting [3]) and more than 10 µM in assay [2] (setting [4]).

With `COC(=O)C1Cc2cc(Nc3ncc(F)c(Nc4ccc(OC)c(Cl)c4)n3)ccc2O1` (centres unmarked) [Compound R926951, N4-(3-Chloro-4-methoxyphenyl)-5-fluoro-N2-[2,3-dihydro-2-(methoxycarbonyl)benzofuran-5-yl]-2,4-pyrimidinediamine], the IC50 in assay [1] (setting [3]) is 0.183 µM; in assay [2] (setting [4]), more than 10 µM.

Regarding `CNC(=O)COc1cccc(Nc2ncc(F)c(Nc3ccc(OCCO)nc3)n2)c1` [Compound R927023, 5-Fluoro-N4-[2-(2-hydroxyethyleneoxy)pyridin-5-yl]-N2-[3-(N-methylamino)carbonylmethyleneoxyphenyl]-2,4-pyrimidinediamine], the IC50 was 0.918 µM in assay [1] (setting [5]) and more than 10 µM in assay [2] (setting [6]).

As to `CC(C)Oc1ccc(Nc2ncc(F)c(Nc3ccc(C(C)(C)CO)cc3)n2)cc1` [Compound R935168, 5-Fluoro-N4-[4-(2-hydroxy-1,1-dimethylethyl)phenyl]-N2-(4-isopropoxyphenyl)-2,4-pyrimidinediamine], the IC50 in assay [1] (setting [3]) was found to be 0.488 µM; in assay [2] (setting [4]) it was 9.48 µM.

With `CC(C)NC(=O)Oc1cccc(Nc2ncc(F)c(Nc3cccc(OC(=O)NC(C)C)c3)n2)c1` [Compound R926412, N2,N4-Bis(3-isopropylaminocarbonyloxyphenyl)-5-fluoro-2,4-pyrimidinediamine], the IC50 in assay [1] (Homo sapiens, Mast cell) is 0.62 µM; in assay [2] (Homo sapiens, Mast cell), more than 10 µM.

In the case of `Oc1cccc(Nc2nc(Nc3cccc(-c4nnn[nH]4)c3)ncc2F)c1` [Compound R926842, 5-Fluoro-N4-(3-hydroxyphenyl)-N2-[3-(tetrazol-5-yl)phenyl]-2,4-pyrimidinediamine], the figures for the IC50 in assay [1] (setting [3]) and in assay [2] (setting [4]) were 7.73 µM and more than 10 µM, respectively.

For the compound `CNCCNC(=O)C=Nc1cccc(Nc2ncc(F)c(Nc3cccc(O)c3)n2)c1` [Compound R950225, 5-Fluoro-N4-(3-hydroxyphenyl)-N2-[3-[(N-methylamino)ethylamino]carbonylmethyleneaminophenyl]-2,4-pyrimidinediamine], the IC50 in assay [1] (setting [3]) is 5.28 µM; in assay [2] (setting [4]), more than 10 µM.

`CC(C)c1cccc(Nc2ncc(F)c(Nc3cccc(C(C)C)c3)n2)c1` [Compound R940297, N2,N4-Bis(3-isopropylphenyl)-5-fluoro-2,4-pyrimidinediamine]: the IC50 in assay [1] (setting [3]) amounted to 3.46 µM; in assay [2] (setting [4]), 10 µM.

`O=C(NCC(O)CO)c1cc2cc(Nc3ncc(F)c(Nc4ccc5c(c4)OCCO5)n3)ccc2o1` (centres unmarked) [Compound R926783, N2-[2-(N-2,3-Dihydroxypropylamino)carbonylbenzofuran-5-yl]-N4-(3,4-ethylenedioxyphenyl)-5-fluoro-2,4-pyrimidinediamine]: the figures for the IC50 in assay [1] (setting [3]) and in assay [2] (setting [4]) were 0.304 µM and more than 10 µM, respectively.

In the case of `Fc1cnc(Nc2ccc3[nH]ccc3c2)nc1Nc1ccc2c(c1)OCCO2` [Compound R926748, N4-(3,4-Ethylenedioxyphenyl)-5-fluoro-N2-[(1H)-indol-5-yl]-2,4-pyrimidinediamine], the IC50 in assay [1] (setting [3]) is 0.345 µM; in assay [2] (setting [4]), more than 10 µM.

In the case of `O=C(O)c1cc(Nc2ncc(F)c(Nc3ccc(O)c(C(=O)O)c3)n2)ccc1O` [Compound R945041, N2,N4-Bis(3-carboxy-4-hydroxyphenyl)-5-fluoro-2,4-pyrimidinediamine], the IC50 in assay [1] (setting [3]) and in assay [2] (setting [4]) was more than 10 µM throughout.

With `Oc1cccc(Nc2ncc(F)c(Nc3ccc4c(c3)N=CCO4)n2)c1` [Compound R909243, N4-(1,4-benzoxazin-6-yl)-5-fluoro-N2-(3-hydroxyphenyl)-2,4-pyrimidinediamine], the IC50 in assay [1] (setting [3]) is 0.263 µM; in assay [2] (setting [4]), more than 10 µM.

In the case of `CCOC(=O)C(C)(C)c1ccc(Nc2nc(Nc3ccc4c(c3)OCCO4)ncc2F)cc1` [Compound R935172, N4-[4-[Ethoxycarbonyl(dimethyl)methyl]phenyl]-N2-(3,4-ethylenedioxyphenyl)-5-fluoro-2,4-pyrimidinediamine], the values for the IC50 in assay [1] (setting [3]) and in assay [2] (setting [4]) were 1.39 µM and 6.81 µM, respectively.

For the compound `COc1ccc(Nc2ncc(F)c(Nc3ccc4c(c3)OCCO4)n2)c(C)c1` [Compound R926845, N4-(3,4-Ethylenedioxyphenyl)-5-fluoro-N2-(4-methoxy-2-methylphenyl)-2,4-pyrimidinediamine], the IC50 is 2.56 µM in assay [1] (setting [3]) and 7.81 µM in assay [2] (setting [4]).

`Nc1nc(Nc2cccc(O)c2)ncc1Br` [Compound R935029, 4-Amino-5-bromo-N2-(3-hydroxyphenyl)-2-pyrimidineamine]: the IC50 in assay [1] (setting [3]) is 2.83 µM; in assay [2] (setting [4]) it was more than 10 µM.

Take `Nc1cccc(Nc2nc(Nc3cccc(O)c3)ncc2F)c1` [Compound R950163, N4-(3-Aminophenyl)-5-fluoro-N2-(3-hydroxyphenyl)-2,4-pyrimidinediamine]: the IC50 in assay [1] (setting [3]) was 0.874 µM; in assay [2] (setting [4]) it was more than 10 µM.

With `Fc1cnc(Nc2ccc(N3CCN(Cc4ccccc4)CC3)cc2)nc1Nc1ccc2c(c1)OCCO2` [Compound R945163, N2-[4-(N-Benzylpiperazino)phenyl]-N4-(3,4-ethylenedioxyphenyl)-5-fluoro-2,4-pyrimidinediamine], the values for the IC50 in assay [1] (setting [3]) and in assay [2] (setting [4]) were 0.922 µM and 4.25 µM, respectively.

As to `Nc1nc(N(CC(O)c2ccccc2)c2ccc3c(c2)OCCO3)ncc1F` (centres unmarked) [Compound R925765, N2-(3,4-Ethylenedioxyphenyl)-5-fluoro-N2-(2-hydroxy-2-phenylethyl)-2,4-pyrimidinediamine], the results for the IC50 in assay [1] (setting [3]) and in assay [2] (setting [4]) were 6.8 µM and more than 10 µM, respectively.

For `COC(=O)C1Cc2cc(Nc3ncc(F)c(Nc4ccc(F)c(F)c4)n3)ccc2O1` (racemic) [Compound R927030, (±)-N4-(3,4-Difluorophenyl)-N2-(2,3-dihydro-2-methoxycarbonylbenzofuran-5-yl)-5-fluoro-2,4-pyrimidinediamine], the IC50 in assay [1] (setting [3]) was 0.26 µM; in assay [2] (setting [4]) it was more than 10 µM.

Regarding `Cc1cc(CNc2ncc(F)c(Nc3cccc(O)c3)n2)c(C)o1` [Compound R945162, N2-[(2,5-Dimethyl-3-furyl)methyl]-5-fluoro-N4-(3-hydroxyphenyl)-2,4-pyrimidinediamine], the IC50 in assay [1] (setting [3]) and in assay [2] (setting [4]) was more than 10 µM in each case.

Consider `CCOC(=O)c1cnc(Nc2ccc3c(c2)OCCO3)nc1NOCc1ccccc1` [Compound R925837, N4-Benzyloxy-5-ethoxycarbonyl-N2-(3,4-ethylenedioxyphenyl)-2,4-pyrimidinediamine], for which the IC50 in assay [1] (setting [3]) and in assay [2] (setting [4]) was more than 10 µM throughout.

Regarding `CNC(=O)COc1cccc(Nc2ncc(F)c(Nc3ccc4c(c3)C=CCC4)n2)c1` [Compound R926944, 5-Fluoro-N4-(3,4-dihydronaphthalen-7-yl)-N2-[3-[(N-methylamino)carbonylmethyleneoxy]phenyl]-2,4-pyrimidinediamine], the values for the IC50 in assay [1] (setting [5]) and in assay [2] (setting [6]) were 0.225 µM and 99 µM, respectively.

In the case of `CN(C)CCOc1cccc(Nc2ncc(F)c(Nc3ccc4c(c3)OCCO4)n2)c1` [Compound R926771, N2-[3-[2-(N, N-Dimethylamino)ethyloxy]phenyl]-N4-(3,4-Ethylenedioxyphenyl)-5-fluoro-2,4-pyrimidinediamine Hydrogen Chloride Salt], the IC50 in assay [1] (setting [3]) was 2.05 µM; in assay [2] (setting [4]) it was more than 10 µM.

In the case of `Oc1ccc(Nc2ncc(F)c(Nc3ccc(O)c(Cl)c3)n2)cc1Cl` [Compound R926675, N2,N4-Bis(3-chloro-4-hydroxyphenyl)-5-fluoro-2,4-pyrimidinediamine], the IC50 in assay [1] (setting [3]) was 0.63 µM; in assay [2] (setting [4]), more than 10 µM.

In the case of `COc1ccc(Nc2nc(NCCN3CCN(Cc4ccccc4)CC3)ncc2F)cc1OC` [Compound R940262, N2-[2-(N-Benzylpiperazino)ethyl]-N4-(3,4-dimethoxyphenyl)-5-fluoro-2,4-pyrimidinediamine], the IC50 in assay [1] (setting [3]) and in assay [2] (setting [4]) was more than 10 µM in each case.

For the compound `Oc1cccc(Nc2cc(Nc3cccc(O)c3)nc(Nc3cccc(O)c3)n2)c1` [Compound R926409, N2,N4,N6-Tris(3-hydroxyphenyl)-2,4,6-pyrimidinetriamine], the IC50 in assay [1] (setting [3]) is 3.15 µM; in assay [2] (setting [4]) it was more than 10 µM.

Turning to `CNC(=O)C1Cc2cc(Nc3ncc(F)c(Nc4ccc(OC(F)(F)F)c(Cl)c4)n3)ccc2O1` (centres unmarked) [Compound R926954, N4-(3-Chloro-4-trifluoromethoxyphenyl)-5-fluoro-N2-[2,3-dihydro-2-[(N-methylamino)carbonyl]benzofuran-5-yl]-2,4-pyrimidinediamine], the IC50 is 0.284 µM in assay [1] (setting [3]) and more than 10 µM in assay [2] (setting [4]).

Regarding `CCNC(=O)Oc1cccc(Nc2ncc(F)c(Nc3cccc(O)c3)n2)c1` [Compound R926928, N2-[3-[(N-Ethylamino)carbonyloxy]phenyl]-5-fluoro-N4-(3-hydroxyphenyl)-2,4-pyrimidinediamine], the IC50 in assay [1] (Homo sapiens, Mast cell) is 0.575 µM; in assay [2] (Homo sapiens, Mast cell), more than 10 µM.

Regarding `Oc1cccc(Nc2nc(Nc3ccc4c(c3)CCO4)ncc2F)c1` [Compound R909250, N2-(2,3-Dihydrobenzofuran-5-yl)-5-fluoro-N4-(3-hydroxyphenyl)-2,4-pyrimidinediamine], the IC50 was 8.03 µM in assay [1] (setting [3]) and more than 10 µM in assay [2] (setting [4]).

For `CCOc1ccc(Nc2ncc(F)c(Nc3ccc(OCC)c(N)c3)n2)cc1N` [Compound R950139, N2,N4-Bis(3-amino-4-ethoxyphenyl)-5-fluoro-2,4-pyrimidinediamine], the IC50 is 1.38 µM in assay [1] (setting [3]) and more than 10 µM in assay [2] (setting [4]).

The values are drawn from US10828301B2, “2,4-pyrimidinediamine compounds and their uses” (Rigel Pharmaceuticals, Inc, priority 2002, dated 2020).
